# Experiments:
# Assay in all cases: coupled PPi-release A-domain assay (PPi-PFK/aldolase/TPI/GDH, NADH)
# Format in all cases: biochemical
# Settings in all cases: apo-PCP form, 0.5 mM ATP, 1 mM MgCl2, pH 7.4, 0.1 mM EDTA, enzyme 0.5 μM
# [1] = molecular target: T1, Tcp12_ΔTE1 (Actinoplanes teichomyceticus, UniProt Q70AZ6)
# T1 construct: gene tcp12; with MbtH-like protein Tcp17
# From the text: coupled PPi-release A-domain assay (PPi-PFK/aldolase/TPI/GDH, NADH) on Tcp12_ΔTE1
# [2] = molecular target: T2, Tcp12_ΔTE2 (Actinoplanes teichomyceticus, UniProt Q70AZ6)
# T2 construct: gene tcp12; with MbtH-like protein Tcp17
# From the text: coupled PPi-release A-domain assay (PPi-PFK/aldolase/TPI/GDH, NADH) on Tcp12_ΔTE2
# [3] = molecular target: T3, Tcp12_ΔTE3 (Actinoplanes teichomyceticus, UniProt Q70AZ6)
# T3 construct: gene tcp12; with MbtH-like protein Tcp17
# From the text: coupled PPi-release A-domain assay (PPi-PFK/aldolase/TPI/GDH, NADH) on Tcp12_ΔTE3
# T3 sequence (Q70AZ6 entry or part of it, stated change not applied): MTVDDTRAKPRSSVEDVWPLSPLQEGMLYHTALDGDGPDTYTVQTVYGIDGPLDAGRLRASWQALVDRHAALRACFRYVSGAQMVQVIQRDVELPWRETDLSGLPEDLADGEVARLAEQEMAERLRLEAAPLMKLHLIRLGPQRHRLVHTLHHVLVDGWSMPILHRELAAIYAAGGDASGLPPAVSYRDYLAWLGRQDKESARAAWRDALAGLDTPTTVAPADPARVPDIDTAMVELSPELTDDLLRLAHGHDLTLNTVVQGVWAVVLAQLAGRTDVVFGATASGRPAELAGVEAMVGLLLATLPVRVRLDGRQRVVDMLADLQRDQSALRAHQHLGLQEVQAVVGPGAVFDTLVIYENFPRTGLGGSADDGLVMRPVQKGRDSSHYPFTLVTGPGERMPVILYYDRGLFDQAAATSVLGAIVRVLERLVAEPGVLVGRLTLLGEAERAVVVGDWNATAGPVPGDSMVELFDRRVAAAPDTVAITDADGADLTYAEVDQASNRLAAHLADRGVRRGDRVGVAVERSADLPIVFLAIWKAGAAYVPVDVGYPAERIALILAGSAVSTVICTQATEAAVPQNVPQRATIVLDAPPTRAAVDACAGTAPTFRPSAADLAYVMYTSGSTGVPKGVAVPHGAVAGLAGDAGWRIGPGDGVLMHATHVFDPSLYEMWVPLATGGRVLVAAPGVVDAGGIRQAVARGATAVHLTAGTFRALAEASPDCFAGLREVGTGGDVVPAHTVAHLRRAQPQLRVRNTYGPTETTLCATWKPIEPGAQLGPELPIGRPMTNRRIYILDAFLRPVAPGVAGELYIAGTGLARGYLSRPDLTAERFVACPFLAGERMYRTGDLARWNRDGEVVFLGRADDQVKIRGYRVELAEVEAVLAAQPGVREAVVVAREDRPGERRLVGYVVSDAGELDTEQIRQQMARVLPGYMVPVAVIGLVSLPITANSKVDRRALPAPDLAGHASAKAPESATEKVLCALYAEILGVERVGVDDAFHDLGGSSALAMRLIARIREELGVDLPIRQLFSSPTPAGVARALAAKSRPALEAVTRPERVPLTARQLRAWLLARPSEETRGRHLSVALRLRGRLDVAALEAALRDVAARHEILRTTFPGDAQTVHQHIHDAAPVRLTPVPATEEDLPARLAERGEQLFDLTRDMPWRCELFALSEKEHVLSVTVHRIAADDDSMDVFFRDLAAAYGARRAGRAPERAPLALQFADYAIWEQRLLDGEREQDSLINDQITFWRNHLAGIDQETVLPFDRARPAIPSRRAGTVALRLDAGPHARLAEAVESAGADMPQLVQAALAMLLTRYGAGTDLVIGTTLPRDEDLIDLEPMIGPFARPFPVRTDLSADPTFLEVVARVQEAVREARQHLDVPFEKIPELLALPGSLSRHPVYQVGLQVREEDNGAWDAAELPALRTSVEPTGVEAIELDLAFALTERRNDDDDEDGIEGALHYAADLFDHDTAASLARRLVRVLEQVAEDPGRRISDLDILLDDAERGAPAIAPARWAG
# T3 sequence (Q70AZ1 entry or part of it, stated change not applied, further chain): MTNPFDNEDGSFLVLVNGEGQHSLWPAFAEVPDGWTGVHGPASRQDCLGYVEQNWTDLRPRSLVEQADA
# T1 sequence (Q70AZ6 entry or part of it, stated change not applied): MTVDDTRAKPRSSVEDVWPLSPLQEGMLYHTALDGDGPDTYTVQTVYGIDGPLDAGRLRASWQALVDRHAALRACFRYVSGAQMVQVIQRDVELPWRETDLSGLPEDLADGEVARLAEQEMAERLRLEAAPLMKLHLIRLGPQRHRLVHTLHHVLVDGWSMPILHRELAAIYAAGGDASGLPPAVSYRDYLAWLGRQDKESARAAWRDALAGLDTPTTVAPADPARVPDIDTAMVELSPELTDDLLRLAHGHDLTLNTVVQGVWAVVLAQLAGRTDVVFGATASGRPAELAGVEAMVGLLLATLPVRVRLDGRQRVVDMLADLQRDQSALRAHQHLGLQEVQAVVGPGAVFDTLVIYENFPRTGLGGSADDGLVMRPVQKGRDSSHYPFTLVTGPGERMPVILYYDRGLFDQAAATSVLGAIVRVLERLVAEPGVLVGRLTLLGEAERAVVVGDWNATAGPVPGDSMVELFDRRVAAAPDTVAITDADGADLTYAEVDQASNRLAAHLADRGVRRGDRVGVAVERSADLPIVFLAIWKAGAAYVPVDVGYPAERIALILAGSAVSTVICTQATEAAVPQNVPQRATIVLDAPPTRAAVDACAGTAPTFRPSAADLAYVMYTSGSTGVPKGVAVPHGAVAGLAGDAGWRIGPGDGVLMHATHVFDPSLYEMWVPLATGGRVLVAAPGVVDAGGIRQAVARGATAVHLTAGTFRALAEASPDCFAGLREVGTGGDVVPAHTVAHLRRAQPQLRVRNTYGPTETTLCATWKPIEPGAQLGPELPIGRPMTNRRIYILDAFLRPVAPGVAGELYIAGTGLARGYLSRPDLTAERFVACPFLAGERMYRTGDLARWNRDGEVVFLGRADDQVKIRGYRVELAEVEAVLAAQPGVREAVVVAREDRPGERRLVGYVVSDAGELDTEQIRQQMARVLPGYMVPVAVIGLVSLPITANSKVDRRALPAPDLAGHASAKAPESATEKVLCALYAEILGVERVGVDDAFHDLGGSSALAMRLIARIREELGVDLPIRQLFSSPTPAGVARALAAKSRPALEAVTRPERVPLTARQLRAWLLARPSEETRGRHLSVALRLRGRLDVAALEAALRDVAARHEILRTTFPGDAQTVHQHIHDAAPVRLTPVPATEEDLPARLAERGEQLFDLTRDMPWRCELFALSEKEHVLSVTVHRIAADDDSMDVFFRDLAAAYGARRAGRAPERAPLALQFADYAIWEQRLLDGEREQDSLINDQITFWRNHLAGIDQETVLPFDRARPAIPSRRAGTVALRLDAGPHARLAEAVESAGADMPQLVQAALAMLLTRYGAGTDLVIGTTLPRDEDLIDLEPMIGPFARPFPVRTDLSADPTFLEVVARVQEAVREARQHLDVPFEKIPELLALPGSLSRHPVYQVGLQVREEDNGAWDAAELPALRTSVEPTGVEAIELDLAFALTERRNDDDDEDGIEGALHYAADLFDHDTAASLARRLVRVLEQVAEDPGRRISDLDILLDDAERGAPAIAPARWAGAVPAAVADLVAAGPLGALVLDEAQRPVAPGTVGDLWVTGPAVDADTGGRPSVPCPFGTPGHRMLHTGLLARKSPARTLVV
# T1 sequence (Q70AZ1 entry or part of it, stated change not applied, further chain): as the sequence (Q70AZ1 entry or part of it, stated change not applied, further chain) above
# T2 sequence (Q70AZ6 entry or part of it, stated change not applied): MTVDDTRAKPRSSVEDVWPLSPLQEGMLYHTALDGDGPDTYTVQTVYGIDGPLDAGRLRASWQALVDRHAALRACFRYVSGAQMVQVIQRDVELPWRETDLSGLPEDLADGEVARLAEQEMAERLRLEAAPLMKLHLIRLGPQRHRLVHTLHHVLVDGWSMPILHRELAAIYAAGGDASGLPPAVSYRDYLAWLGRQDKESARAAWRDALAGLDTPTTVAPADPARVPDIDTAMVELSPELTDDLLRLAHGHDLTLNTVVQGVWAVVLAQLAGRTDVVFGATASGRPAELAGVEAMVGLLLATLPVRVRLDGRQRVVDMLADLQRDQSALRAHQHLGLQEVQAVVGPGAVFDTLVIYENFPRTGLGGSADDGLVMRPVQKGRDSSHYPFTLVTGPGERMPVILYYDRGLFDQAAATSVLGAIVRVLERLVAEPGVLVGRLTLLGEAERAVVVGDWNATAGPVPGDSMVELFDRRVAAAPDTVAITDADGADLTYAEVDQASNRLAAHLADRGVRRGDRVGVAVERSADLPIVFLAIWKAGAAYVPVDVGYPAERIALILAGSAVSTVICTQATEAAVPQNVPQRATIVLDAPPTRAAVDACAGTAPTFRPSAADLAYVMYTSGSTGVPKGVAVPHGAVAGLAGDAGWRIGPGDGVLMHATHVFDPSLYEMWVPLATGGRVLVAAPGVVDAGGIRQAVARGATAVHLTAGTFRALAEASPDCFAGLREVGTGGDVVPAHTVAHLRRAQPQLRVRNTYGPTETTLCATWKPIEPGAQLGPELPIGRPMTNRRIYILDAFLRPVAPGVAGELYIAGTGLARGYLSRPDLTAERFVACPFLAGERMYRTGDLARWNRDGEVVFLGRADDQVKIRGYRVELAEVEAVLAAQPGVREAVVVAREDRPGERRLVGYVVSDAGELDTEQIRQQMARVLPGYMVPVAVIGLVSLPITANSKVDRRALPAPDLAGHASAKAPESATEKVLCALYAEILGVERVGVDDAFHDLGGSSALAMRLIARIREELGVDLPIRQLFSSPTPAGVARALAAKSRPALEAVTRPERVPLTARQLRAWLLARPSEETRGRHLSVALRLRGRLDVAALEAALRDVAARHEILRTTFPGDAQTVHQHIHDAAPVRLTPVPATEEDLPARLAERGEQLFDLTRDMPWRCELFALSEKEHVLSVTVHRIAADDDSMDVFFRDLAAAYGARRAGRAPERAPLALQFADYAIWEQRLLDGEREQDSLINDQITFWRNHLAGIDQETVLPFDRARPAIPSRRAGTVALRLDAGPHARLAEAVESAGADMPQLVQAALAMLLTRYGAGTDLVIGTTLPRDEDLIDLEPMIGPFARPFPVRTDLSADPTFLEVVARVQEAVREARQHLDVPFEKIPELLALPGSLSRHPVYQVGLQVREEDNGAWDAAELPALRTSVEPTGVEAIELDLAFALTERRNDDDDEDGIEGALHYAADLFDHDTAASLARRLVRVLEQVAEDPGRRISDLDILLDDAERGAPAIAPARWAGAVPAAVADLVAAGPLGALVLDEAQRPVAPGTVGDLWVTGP
# T2 sequence (Q70AZ1 entry or part of it, stated change not applied, further chain): as the sequence (Q70AZ1 entry or part of it, stated change not applied, further chain) above
smiles,measurement,setting,value
"N[C@H](C(=O)O)c1cc(O)cc(O)c1 [Dpg, (S)-3,5-dihydroxyphenylglycine]",Km,[1],6 ± 0.6 µM
same,Km,[2],10 ± 0.9 µM
same,Km,[3],8 ± 0.6 µM

# From PMC6333238, “The biosynthetic implications of late-stage condensation domain selectivity during glycopeptide antibiotic biosynthesis” (Chemical Science, 2018)
